The results in this text go back to patent US10093656B2, “Fused-ring or tricyclic aryl pyrimidine compound used as kinase inhibitor” (NANJING SANHOME PHARMACEUTICAL CO., LTD, priority 2015, dated 2018).

Molecules are shown by their SMILES.

Experiment [1] concerns NCI-H1975 cells EGFR L858R/T790M. The experiment can be described thus: NCI-H1975 cell viability assay (Cell Titer-Glo, 6 days). The note with it: Homo sapiens, 144 h. It is filed as cell-based. How it is done:
(§1) RPMI1640, fetal bovine serum, penicillin/streptomycin solution were purchased from Life Technology (Madison, Wis.). Cell Titer-Glo luminescent cell viability reagents were purchased from Promega (Madison, Wis.). A431 cell line and NCI-H1975 cell line were purchased from European Collection of Cell Cultures (ECACC). Plate Reader Instrument: Envision (PerkinElmer).
(§2) 384-Well plates, 300 of A431 cells and NCI-H1975 cells were inoculated per well, a volume of which was 45 μL. And the plates were incubated overnight in a CO2 incubator at 37° C. The test compound was diluted 3-fold to obtain 10 dose concentrations, the final concentrations of which were from 10 μM to 0.508 nM, two wells. The middle plates were filled with 49 μL of medium per well. 1 μL of compound in the gradient dilution compound plates was transferred to the middle plates and mixed well. And then 5 μL liquid in the middle plates was taken to the cell plates. The cells were incubated in a CO2 incubator for 6 days. After 6 days, 25 μL of detection reagents was added. And then the mixture was incubated at room temperature for 10 minutes and the plates were read by Envision.
(§3) The reading is converted to the suppression rate by the following formula (%) (Max-Sample)/(Max-Min)*100%. IC50 Data was measured by Four-parameter curve fitting (Model 205 in XLFIT5, IDBS).
A general note: In ATP-based viability assays light output follows the ATP content of the culture.

For the next experiment, the target named is T1, EGFR T790M/L858R (Homo sapiens, UniProt P00533, L858R/T790M).
T1 construct: purchased Life technology (Madison, Wis.)
In words: EGFR T790M/L858R enzyme HTRF inhibition assay. It is filed as biochemical. The note with it: 20 μM ATP, read-out: EGFR L858R/T79M IC50. How it is done: (§4) Enzyme: EGFR wild type, EGFR T790M/L858R, EGFR T790M and INSR were purchased from Life technology (Madison, Wis.), EGFR d746-750/T790M was purchased from Carna Biosciences (Japan).
(§5) HTRF Kit was purchased from Cis-Bio International which contained the Eu-labeled TK1 antibody, XL665 and biotin-labeled TK1 polypeptide substrates.
(§6) Detecting instrument: Envision (PerkinElmer).
(§7) The test compound was diluted 3-fold to obtain 10 doses of which the final concentration was from 300 nM to 0.015 nM.
EGFR T790M/L858R Enzyme Reaction Mixture System:
0.04 nM EGFR T790M/L858R, 1 μM biotin-TK1 peptide, 20 μM ATP enzyme buffer, a total of which was 10 μL. The reaction plate was white Proxiplate 384-Plus plate (PerkinElmer) and the mixture was reacted at 23° C. for 60 minutes.
(§8) Reaction Detection: 10 μL of detection reagent containing Antibody 2 nM and XL665 62.5 nM was added, and the reagent was incubated at 23° C. for 60 minutes. The plates were read by Envision.
(§9) The reading is converted to the suppression rate (%) by the following formula […]/(Max-Min)*100%. IC50 Data was measured by four-parameter curve fitting (Model 205 in XLFITS, IDBS).
For orientation: In TR-FRET formats the signal depends on donor and acceptor labels being close together.

Another experiment concerns A431 cells EGFR WT. In words: A431 cell viability assay (Cell Titer-Glo, 6 days). It is filed as cell-based, human. The following applies: for IC50: Homo sapiens, A-431, 144 h, A431 cells, 6 days; for A431:NCI-H1975 (ratio): ratio of cell IC50 A431 to NCI-H1975. How it is done:
as §1, §2, §3

The next experiment has as its target T2, EGFR d746-750/T790M (Homo sapiens, UniProt P00533, DEL746-750/T790M).
T2 construct: purchased Carna Biosciences (Japan)
The experiment can be described thus: EGFR d746-750/T790M enzyme HTRF inhibition assay. The class given is biochemical. The following applies: 40 μM ATP. How it is done:
as §4, §5, §6, §7
EGFR d746-750/T790M Enzyme Reaction Mixture System:
0.025 nM EGFR d746-750/T790M, 1 μM biotin-TK1 peptide, 40 μM ATP enzyme buffer, a total of which was 10 μL. The reaction plate was white Proxiplate 384-Plus plate (PerkinElmer) and the mixture was reacted at 23° C. for 60 minutes.
as §8, §9

Another experiment addresses T3, EGFR wild type (Homo sapiens, UniProt P00533).
T3 construct: purchased Life technology (Madison, Wis.)
In words: Wild-type EGFR enzyme HTRF inhibition assay. It is filed as biochemical. The following applies: 25 μM ATP, read-out: EGFR WT IC50. The method, then:
as §4, §5, §6, §7
Wild-Type EGFR Enzyme Reaction Mixture System:
0.05 nM Wild-type EGFR, 1 μM biotin-TK1 peptide, 25 μM ATP enzyme buffer, a total of which was 10 μL. The reaction plate was white Proxiplate 384-Plus plate (PerkinElmer) and the mixture was reacted at 23° C. for 60 minutes.
as §8, §9

T2 sequence (P00533 with tags, fused parts or gaps DEL746-750/T790M limits assumed): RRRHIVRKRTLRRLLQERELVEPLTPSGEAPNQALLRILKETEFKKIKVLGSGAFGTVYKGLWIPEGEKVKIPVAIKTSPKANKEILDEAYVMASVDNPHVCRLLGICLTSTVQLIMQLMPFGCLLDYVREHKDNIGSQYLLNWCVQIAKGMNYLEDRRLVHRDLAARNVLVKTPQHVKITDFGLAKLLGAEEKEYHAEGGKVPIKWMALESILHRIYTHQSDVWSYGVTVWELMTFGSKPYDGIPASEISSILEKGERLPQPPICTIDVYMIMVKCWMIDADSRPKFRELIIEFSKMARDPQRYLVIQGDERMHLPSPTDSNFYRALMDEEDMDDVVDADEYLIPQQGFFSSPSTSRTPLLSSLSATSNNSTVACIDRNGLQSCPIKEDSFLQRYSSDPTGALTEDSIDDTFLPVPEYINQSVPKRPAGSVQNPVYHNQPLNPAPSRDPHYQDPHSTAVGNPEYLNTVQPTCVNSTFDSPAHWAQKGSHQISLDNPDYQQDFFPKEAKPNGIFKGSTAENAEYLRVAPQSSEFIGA
T3 sequence (P00533 25-1210): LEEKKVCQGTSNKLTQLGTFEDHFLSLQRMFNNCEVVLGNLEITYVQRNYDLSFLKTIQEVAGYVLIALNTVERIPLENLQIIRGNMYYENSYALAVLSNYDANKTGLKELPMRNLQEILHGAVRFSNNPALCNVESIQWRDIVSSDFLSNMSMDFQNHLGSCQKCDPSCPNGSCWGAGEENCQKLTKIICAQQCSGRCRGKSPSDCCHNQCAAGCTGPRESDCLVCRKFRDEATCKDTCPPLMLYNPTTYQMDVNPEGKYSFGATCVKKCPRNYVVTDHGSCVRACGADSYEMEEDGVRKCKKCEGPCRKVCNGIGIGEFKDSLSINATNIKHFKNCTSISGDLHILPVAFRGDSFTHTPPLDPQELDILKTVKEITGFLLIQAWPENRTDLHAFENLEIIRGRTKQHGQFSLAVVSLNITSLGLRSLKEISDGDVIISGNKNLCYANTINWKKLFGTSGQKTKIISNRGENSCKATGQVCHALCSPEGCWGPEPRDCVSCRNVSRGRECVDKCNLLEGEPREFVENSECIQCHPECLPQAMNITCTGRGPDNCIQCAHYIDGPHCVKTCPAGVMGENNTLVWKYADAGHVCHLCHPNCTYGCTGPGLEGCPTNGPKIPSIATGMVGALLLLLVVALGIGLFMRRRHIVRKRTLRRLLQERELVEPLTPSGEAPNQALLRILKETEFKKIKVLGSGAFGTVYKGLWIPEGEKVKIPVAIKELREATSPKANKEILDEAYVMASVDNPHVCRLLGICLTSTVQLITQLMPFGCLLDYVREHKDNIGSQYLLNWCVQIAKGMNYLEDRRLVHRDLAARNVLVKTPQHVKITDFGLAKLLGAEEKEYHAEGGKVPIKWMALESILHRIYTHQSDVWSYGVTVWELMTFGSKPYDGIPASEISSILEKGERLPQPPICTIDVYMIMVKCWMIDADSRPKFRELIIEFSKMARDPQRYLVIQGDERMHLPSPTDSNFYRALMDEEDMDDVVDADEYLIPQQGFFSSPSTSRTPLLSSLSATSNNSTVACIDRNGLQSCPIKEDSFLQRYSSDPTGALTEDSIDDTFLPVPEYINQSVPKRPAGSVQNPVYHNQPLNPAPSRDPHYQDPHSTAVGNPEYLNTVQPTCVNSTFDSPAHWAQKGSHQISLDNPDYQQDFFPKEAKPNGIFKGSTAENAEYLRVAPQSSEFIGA
T1 sequence (P00533 25-1210 T790M/L858R): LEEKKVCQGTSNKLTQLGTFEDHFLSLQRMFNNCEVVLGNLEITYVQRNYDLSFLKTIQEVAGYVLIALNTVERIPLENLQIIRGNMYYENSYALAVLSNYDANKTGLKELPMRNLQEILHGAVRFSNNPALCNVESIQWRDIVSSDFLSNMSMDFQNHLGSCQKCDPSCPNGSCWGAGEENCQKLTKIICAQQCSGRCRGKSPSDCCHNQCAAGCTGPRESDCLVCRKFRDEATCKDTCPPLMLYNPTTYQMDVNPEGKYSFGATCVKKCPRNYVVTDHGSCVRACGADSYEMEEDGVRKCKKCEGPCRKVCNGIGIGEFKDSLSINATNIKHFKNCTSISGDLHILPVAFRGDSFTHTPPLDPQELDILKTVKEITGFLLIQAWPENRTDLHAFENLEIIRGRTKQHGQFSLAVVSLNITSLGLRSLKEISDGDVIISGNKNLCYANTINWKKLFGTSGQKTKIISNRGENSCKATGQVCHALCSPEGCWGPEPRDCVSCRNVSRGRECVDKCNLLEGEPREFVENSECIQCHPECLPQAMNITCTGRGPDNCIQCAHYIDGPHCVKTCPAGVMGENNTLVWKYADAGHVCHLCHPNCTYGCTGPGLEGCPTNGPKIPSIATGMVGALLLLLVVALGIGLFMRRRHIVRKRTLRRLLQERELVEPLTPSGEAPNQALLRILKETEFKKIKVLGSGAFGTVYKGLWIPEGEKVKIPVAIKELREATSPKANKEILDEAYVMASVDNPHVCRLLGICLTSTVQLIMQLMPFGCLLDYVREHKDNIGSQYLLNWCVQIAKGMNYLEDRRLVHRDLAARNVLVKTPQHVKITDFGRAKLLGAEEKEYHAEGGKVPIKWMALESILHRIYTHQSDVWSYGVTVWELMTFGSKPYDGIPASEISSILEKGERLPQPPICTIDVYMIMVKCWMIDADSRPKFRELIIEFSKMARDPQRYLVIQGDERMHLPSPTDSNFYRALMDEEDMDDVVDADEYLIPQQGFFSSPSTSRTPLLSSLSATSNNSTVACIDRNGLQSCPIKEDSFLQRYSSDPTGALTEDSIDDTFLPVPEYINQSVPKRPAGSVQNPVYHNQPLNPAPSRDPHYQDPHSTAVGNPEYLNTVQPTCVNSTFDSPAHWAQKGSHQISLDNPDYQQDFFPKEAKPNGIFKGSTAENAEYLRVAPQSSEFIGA

On to `C=CC(=O)Nc1cc(Nc2nccc(-c3c4n(c5ccccc35)CCC4)n2)c(OC)cc1N1CC(N(C)C)C1` [Embodiment 2, N-(5-((4-(2,3-Dihydro-1H-pyrrolo[1,2-a]indol-9-yl)pyrimidin-2-yl)amino)-2-(3-(dimethylamino)azetidin-1-yl)-4-methoxyphenyl)acrylamide], for which the IC50 in experiment [1] was 4740 nM; on EGFR T790M/L858R it was 0.55 nM; in the experiment on A431 cells EGFR WT, more than 10000 nM; on EGFR d746-750/T790M, 0.67 nM; at EGFR wild type it was 4.31 nM. For the same molecule, the “A431:NCI-H1975 (ratio)” value in the experiment with A431 cells EGFR WT is more than 2.1.

Regarding `C=CC(=O)Nc1cc(Nc2nccc(-c3c4n(c5ccccc35)CCC4)n2)c(OC)cc1N1CCN(C)CC1` [Embodiment 4, 2-(2-Methoxy-4-(N-methyl)piperazine-5-acrylamidoanilino)-4-(3-(1,2,3-dihydropyrrolo[1,2-a]indol))pyrimidine], the IC50 in experiment [1] was determined as 434 nM; on EGFR T790M/L858R, 3.25 nM; with A431 cells EGFR WT it was 4620 nM; against EGFR d746-750/T790M it was 2.7 nM; at EGFR wild type it was 60 nM. In addition, in the experiment on A431 cells EGFR WT, the “A431:NCI-H1975 (ratio)” value stood at 10.6.

Take `C=CC(=O)Nc1cc(Nc2nccc(-c3c4n(c5ccccc35)CCC4)n2)c(OC)cc1N(C)CCN1CCCC1` [Embodiment 5]: the IC50 in experiment [1] came to 19 nM; on EGFR T790M/L858R, 0.93 nM; in the experiment on A431 cells EGFR WT, 2670 nM; against EGFR d746-750/T790M, 0.97 nM; on EGFR wild type, 7.28 nM. For the same molecule, the “A431:NCI-H1975 (ratio)” value in the experiment with A431 cells EGFR WT is 140.6.

Turning to `C=CC(=O)Nc1cc(Nc2nccc(-c3c4n(c5ccccc35)CCC4)n2)c(OC)cc1N1CCC(N(C)C)C1` (stereo not drawn) [Embodiment 6, N-(5-((4-(2,3-Dihydro-1H-pyrrolo[1,2-a]indol-9-yl)pyrimidin-2-yl)amino)-2-(3-(dimethylamino)pyrrolidin-1-yl)-4-methoxyphenyl)acrylamide], the IC50 was 4330 nM in experiment [1]; 3.07 nM on EGFR T790M/L858R; more than 10000 nM in the experiment with A431 cells EGFR WT; 3.29 nM against EGFR d746-750/T790M; 20.3 nM at EGFR wild type. The “A431:NCI-H1975 (ratio)” value in the experiment with A431 cells EGFR WT is reported as more than 2.1.

Turning to `C=CC(=O)Nc1cc(Nc2nccc(-c3c4n(c5ccccc35)CCC4)n2)c(OC)cc1N(C)CCCN(C)C` [Embodiment 7, N-(5-((4-(2,3-Dihydro-1H-pyrrolo[1,2-a]indol-9-yl)pyrimidin-2-yl)amino)-2-((3-(dimethylamino)propyl)(methyl)amino)-4-methoxyphenyl)acrylamide], the IC50 was 496 nM in experiment [1]; 2.19 nM at EGFR T790M/L858R; 3720 nM with A431 cells EGFR WT; 2.59 nM at EGFR d746-750/T790M; 33 nM on EGFR wild type. The “A431:NCI-H1975 (ratio)” value in the experiment on A431 cells EGFR WT is 7.5.

On to `C=CC(=O)Nc1cc(Nc2nccc(-c3c4n(c5ccccc35)CCC4)n2)c(OC)cc1C#CCN(C)C` [Embodiment 8, N-(5-((4-(2,3-Dihydro-1H-pyrrolo[1,2-a]indol-9-yl)pyrimidin-2-yl)amino)-2-(3-(dimethylamino)prop-1-yn-1-yl)-4-methoxyphenyl)acrylamide], for which the IC50 in experiment [1] stood at 474 nM; at EGFR T790M/L858R, 0.91 nM; with A431 cells EGFR WT it was 5460 nM; on EGFR d746-750/T790M, 0.64 nM; on EGFR wild type, 5.22 nM. Also, the “A431:NCI-H1975 (ratio)” value in the experiment with A431 cells EGFR WT is 11.5.

On to `C=CC(=O)Nc1cc(Nc2nccc(-c3c4n(c5ccccc35)CCC4)n2)c(OC)cc1CN1CCOCC1` [Embodiment 9, N-(5-((4-(2,3-Dihydro-1H-pyrrolo[1,2-a]indol-9-yl)pyrimidin-2-yl)amino)-4-methoxy-2-(morpholinomethyl)phenyl)acrylamide], for which the IC50 came to 111 nM in experiment [1]; 0.75 nM on EGFR T790M/L858R; 1440 nM in the experiment on A431 cells EGFR WT; 0.51 nM against EGFR d746-750/T790M; 6.28 nM at EGFR wild type. The “A431:NCI-H1975 (ratio)” value in the experiment on A431 cells EGFR WT stood at 13.0.

Turning to `C=CC(=O)Nc1cc(Nc2nccc(-c3c4n(c5ccccc35)CCC4)n2)c(OC)cc1CCCN(C)C` [Embodiment 10], the IC50 was determined as 283 nM in experiment [1]; 2.19 nM on EGFR T790M/L858R; 2260 nM in the experiment on A431 cells EGFR WT; 1.89 nM against EGFR d746-750/T790M; 27.5 nM on EGFR wild type. Moreover, in the experiment with A431 cells EGFR WT, the “A431:NCI-H1975 (ratio)” value is listed as 8.0.

As for `C=CC(=O)Nc1cc(Nc2nccc(-c3c4n(c5ccccc35)CCC4)n2)c(OC)cc1N(C)C(C)CN(C)C` (stereo not drawn) [Embodiment 11, N-(5-((4-(2,3-Dihydro-1H-pyrrolo[1,2-a]indol-9-yl)pyrimidin-2-yl)amino)-2-((1-(dimethylamino)propan-2-yl)(methyl)amino)-4-methoxyphenyl)acrylamide], the IC50 was found to be 6.1 nM in experiment [1]; 0.23 nM on EGFR T790M/L858R; 270 nM in the experiment with A431 cells EGFR WT; 0.2 nM at EGFR d746-750/T790M; 0.53 nM on EGFR wild type. Besides, in the experiment on A431 cells EGFR WT, the “A431:NCI-H1975 (ratio)” value stood at 44.3.

Regarding `C=CC(=O)Nc1cc(Nc2nccc(-c3c4n(c5ccccc35)CCC4=O)n2)c(OC)cc1N(C)CCN(C)C` [Embodiment 12, N-(2-((2-(Dimethylamino)ethyl)(methyl)amino)-4-methoxy-5-((4-(1-oxo-2,3-dihydro-1H-pyrrolo[1,2-a]indol-9-yl)pyrimidin-2-yl)amino)phenyl)acrylamide], the IC50 in experiment [1] was found to be 4.8 nM; on EGFR T790M/L858R, 0.33 nM; in the experiment on A431 cells EGFR WT it was 369 nM; against EGFR d746-750/T790M, 0.31 nM; on EGFR wild type it was 0.43 nM. The “A431:NCI-H1975 (ratio)” value in the experiment with A431 cells EGFR WT was 76.9.

On to `C=CC(=O)Nc1cc(Nc2nccc(-c3c4n(c5ccccc35)CCOC4)n2)c(OC)cc1N(CC)CCNCC` [Embodiment 21, N-(5-((4-(3,4-Dihydro-1H-[1,4]oxazino[4,3-a]indol-10-yl)pyrimidin-2-yl)amino)-2-(ethyl(2-(ethylamino)ethyl)amino)-4-methoxyphenyl)acrylamide], for which, in experiment [1], the IC50 turned out to be 50 nM. In the experiment on A431 cells EGFR WT, the IC50 stood at 1440 nM and the “A431:NCI-H1975 (ratio)” value stood at 29.

As for `C=CC(=O)Nc1cc(Nc2nccc(-c3c4n(c5ccccc35)CCOC4)n2)c(OC)cc1N(CC)CCN(C)CC` [Embodiment 22, N-(5-((4-(3,4-Dihydro-1H-[1,4]oxazino[4,3-a]indol-10-yl)pyrimidin-2-yl)amino)-2-(ethyl(2-(ethyl(methyl)amino)ethyl)amino)-4-methoxyphenyl)acrylamide], the IC50 in experiment [1] worked out at 50.4 nM. For the same molecule, in the experiment on A431 cells EGFR WT, the IC50 was found to be 1330 nM and the “A431:NCI-H1975 (ratio)” value turned out to be 26.

As for `C=CC(=O)Nc1cc(Nc2nccc(-c3c4n(c5ccccc35)CCOC4)n2)c(OC)cc1N(C)CCNC(C)C` [Embodiment 23, N-(5-((4-(3,4-Dihydro-1H-[1,4]oxazino[4,3-a]indol-10-yl)pyrimidin-2-yl)amino)-2-((2-(isopropylamino)ethyl)(methyl)amino)-4-methoxyphenyl)acrylamide], the IC50 is 63 nM in experiment [1] and 1570 nM in the experiment on A431 cells EGFR WT. Besides, the “A431:NCI-H1975 (ratio)” value in the experiment on A431 cells EGFR WT was 25.

Consider `C=CC(=O)Nc1cc(Nc2nccc(-c3c4n(c5ccccc35)CCOC4)n2)c(OC)cc1N(C)CCN1CCC1` [Embodiment 26, N-(2-((2-(Azetidin-1-yl)ethyl)(methyl)amino)-5-((4-(3,4-dihydro-1H-[1,4]oxazino[4,3-a]indol-10-yl)pyrimidin-2-yl)amino)-4-methoxyphenyl)acrylamide], for which the IC50 in experiment [1] was found to be 102 nM. In the experiment with A431 cells EGFR WT, the IC50 came to 2210 nM and the “A431:NCI-H1975 (ratio)” value was found to be 22.
